Earlier results, collected in US20100136119A1, “CONTROLLED-RELEASE PREPARATION CONTAINING CILOSTAZOL AND PROCESS FOR THE PREPARATION THEREOF” (AMOREPACIFIC CORPORATION, priority 2007, published 2010).

O=C1CCc2cc(OCCCCc3nnnn3C3CCCCC3)ccc2N1 [Cilostazol]
solubility in water: ≤ 1 µg/mL
